Source: US10743540B2, “3-amino-1,2,4-triazine derivatives and their use for controlling undesired plant growth” (BAYER CROPSCIENCE AKTIENGESELLSCHAFT, priority 2016, dated 2020)

Experiments:
Format in all cases: in vivo
STEME: Stellaria media [1] = experiment: Post-emergence herbicidal effect; details: application rate 320 g/ha, treated at one-leaf stage, assessed visually after about 3 weeks, 100% = plants have died
Procedure: (§1) [table] 2. Post-Emergence Herbicidal Effect and Crop Plant Compatibility Seeds of monocotyledonous and dicotyledonous weed and crop plants are laid out in sandy loam soil in wood-fiber pots, covered with soil and cultivated in a greenhouse under good growth conditions. 2 to 3 weeks after sowing, the test plants are treated at the one-leaf stage. The compounds of the invention, formulated in the form of wettable powders (WP) or as emulsion concentrates (EC), are then sprayed onto the green parts of the plants as aqueous suspension or emulsion at a water application rate equating to 600 to 800 L/ha with addition of 0.2% wetting agent. After the test plants have been left to stand in the greenhouse under optimal growth conditions for about 3 weeks, the action of the preparations is assessed visually in comparison to untreated controls (herbicidal action in percent (%): 100% activity=the plants have died, 0% activity=like control plants).

VERPE: Veronica persica [2] = experiment: Post-emergence herbicidal effect; details: application rate 320 g/ha, treated at one-leaf stage, assessed visually after about 3 weeks, 100% = plants have died
Procedure: as §1

[3] = test system: AMARE: Amaranthus retroflexus; experiment: Post-emergence herbicidal effect; details: application rate 320 g/ha, treated at one-leaf stage, assessed visually after about 3 weeks, 100% = plants have died
Procedure: as §1

VIOTR: Viola tricolor = experiment: Post-emergence herbicidal effect; details: application rate 320 g/ha, treated at one-leaf stage, assessed visually after about 3 weeks, 100% = plants have died
Procedure: as §1

[4] = test system: LOLMU: Lolium multiflorum; experiment: Pre-emergence herbicidal effect; details: application rate 320 g/ha, scored visually after 3 weeks, 100% = plants have died, 0% = like control plants
Description: (§2) 1. Pre-Emergence Herbicidal Effect and Crop Plant Compatibility Seeds of monocotyledonous and dicotyledonous weed plants and crop plants are laid out in sandy loam soil in wood-fiber pots and covered with soil. The compounds of the invention, formulated in the form of wettable powders (WP) or as emulsion concentrates (EC), are then applied to the surface of the covering soil as aqueous suspension or emulsion at a water application rate equating to 600 to 800 L/ha with addition of 0.2% wetting agent. After the treatment, the pots are placed in a greenhouse and kept under good growth conditions for the trial plants. The damage to the test plants is scored visually after a test period of 3 weeks by comparison with untreated controls (herbicidal activity in percent (%): 100% activity=the plants have died, 0% activity=like control plants). [table]

[5] = test system: ALOMY: Alopecurus myosuroides; experiment: Pre-emergence herbicidal effect; details: application rate 320 g/ha, scored visually after 3 weeks, 100% = plants have died, 0% = like control plants
Description: as §2

STEME: Stellaria media [6] = experiment: Pre-emergence herbicidal effect; details: application rate 320 g/ha, scored visually after 3 weeks, 100% = plants have died, 0% = like control plants
Description: as §2

[7] = test system: POLCO: Polygonum convolvulus; experiment: Pre-emergence herbicidal effect; details: application rate 320 g/ha, scored visually after 3 weeks, 100% = plants have died, 0% = like control plants
Description: as §2

[8] = test system: MATIN: Matricaria inodora; experiment: Pre-emergence herbicidal effect; details: application rate 320 g/ha, scored visually after 3 weeks, 100% = plants have died, 0% = like control plants
Description: as §2

VERPE: Veronica persica [9] = experiment: Pre-emergence herbicidal effect; details: application rate 320 g/ha, scored visually after 3 weeks, 100% = plants have died, 0% = like control plants
Description: as §2

[10] = test system: ECHCG: Echinochloa crus-galli; experiment: Pre-emergence herbicidal effect; details: application rate 320 g/ha, scored visually after 3 weeks, 100% = plants have died, 0% = like control plants
Description: as §2

SETVI: Setaria viridis = experiment: Pre-emergence herbicidal effect; details: application rate 320 g/ha, scored visually after 3 weeks, 100% = plants have died, 0% = like control plants
Description: as §2

[11] = test system: ABUTH: Abutilon theophrasti; experiment: Pre-emergence herbicidal effect; details: application rate 320 g/ha, scored visually after 3 weeks, 100% = plants have died, 0% = like control plants
Description: as §2

## Nc1nc(N[C@@H]2CCCc3ccccc32)nnc1Cl [Example 1.4]
STEME: Stellaria media [1]
  Herbicidal activity with respect to [%] STEME: 90%
VERPE: Veronica persica [2]
  Herbicidal activity with respect to [%] VERPE: 90%
[3]
  Herbicidal activity with respect to [%] AMARE: 90%
VIOTR: Viola tricolor
  Herbicidal activity with respect to [%] VIOTR: 80%
[4]
  Herbicidal activity with respect to [%] LOLMU: 100%
[5]
  Herbicidal activity with respect to [%] ALOMY: 100%
STEME: Stellaria media [6]
  Herbicidal activity with respect to [%] STEME: 100%
[7]
  Herbicidal activity with respect to [%] POLCO: 100%
[8]
  Herbicidal activity with respect to [%] MATIN: 100%
VERPE: Veronica persica [9]
  Herbicidal activity with respect to [%] VERPE: 100%
[10]
  Herbicidal activity with respect to [%] ECHCG: 100%
SETVI: Setaria viridis
  Herbicidal activity with respect to [%] SETVI: 100%

## Cc1ccc2c(c1)[C@H](Nc1nnc(C(=O)N(C)C)c(N)n1)CC2 [Example 1.77]
STEME: Stellaria media [1]
  Herbicidal activity with respect to [%] STEME: 100%
VIOTR: Viola tricolor
  Herbicidal activity with respect to [%] VIOTR: 90%
[5]
  Herbicidal activity with respect to [%] ALOMY: 100%
[11]
  Herbicidal activity with respect to [%] ABUTH: 90%
[7]
  Herbicidal activity with respect to [%] POLCO: 100%
[8]
  Herbicidal activity with respect to [%] MATIN: 100%
[10]
  Herbicidal activity with respect to [%] ECHCG: 100%
SETVI: Setaria viridis
  Herbicidal activity with respect to [%] SETVI: 100%

## CCOC(=O)c1nnc(N[C@@H]2CCCc3ccccc32)nc1N [Example 1.32, Ethyl 5-amino-3-[(1R)-1,2,3,4-tetrahydronaphthalen-1-ylamino]-1,2,4-triazine-6-carboxylate]
STEME: Stellaria media [1]
  Herbicidal activity with respect to [%] STEME: 80%
VERPE: Veronica persica [2]
  Herbicidal activity with respect to [%] VERPE: 80%
[3]
  Herbicidal activity with respect to [%] AMARE: 80%
STEME: Stellaria media [6]
  Herbicidal activity with respect to [%] STEME: 100%
[8]
  Herbicidal activity with respect to [%] MATIN: 100%
VERPE: Veronica persica [9]
  Herbicidal activity with respect to [%] VERPE: 100%
[10]
  Herbicidal activity with respect to [%] ECHCG: 100%
SETVI: Setaria viridis
  Herbicidal activity with respect to [%] SETVI: 90%

## C[S+]([O-])c1nnc(N[C@@H]2CCCc3ccccc32)nc1N (some centres unmarked) [Example 1.65]
STEME: Stellaria media [1]
  Herbicidal activity with respect to [%] STEME: 100%
VERPE: Veronica persica [2]
  Herbicidal activity with respect to [%] VERPE: 80%
VIOTR: Viola tricolor
  Herbicidal activity with respect to [%] VIOTR: 80%
[4]
  Herbicidal activity with respect to [%] LOLMU: 100%
[11]
  Herbicidal activity with respect to [%] ABUTH: 90%
STEME: Stellaria media [6]
  Herbicidal activity with respect to [%] STEME: 100%
[7]
  Herbicidal activity with respect to [%] POLCO: 100%
[8]
  Herbicidal activity with respect to [%] MATIN: 100%
VERPE: Veronica persica [9]
  Herbicidal activity with respect to [%] VERPE: 100%
[10]
  Herbicidal activity with respect to [%] ECHCG: 100%
SETVI: Setaria viridis
  Herbicidal activity with respect to [%] SETVI: 100%

## N#Cc1nnc(NC2CCOc3ccc(F)cc32)nc1N (racemic) [Example 1.64]
STEME: Stellaria media [1]
  Herbicidal activity with respect to [%] STEME: 90%
VERPE: Veronica persica [2]
  Herbicidal activity with respect to [%] VERPE: 100%
[3]
  Herbicidal activity with respect to [%] AMARE: 100%
VIOTR: Viola tricolor
  Herbicidal activity with respect to [%] VIOTR: 80%
STEME: Stellaria media [6]
  Herbicidal activity with respect to [%] STEME: 100%
[7]
  Herbicidal activity with respect to [%] POLCO: 100%
[8]
  Herbicidal activity with respect to [%] MATIN: 90%
VERPE: Veronica persica [9]
  Herbicidal activity with respect to [%] VERPE: 100%
[10]
  Herbicidal activity with respect to [%] ECHCG: 100%
SETVI: Setaria viridis
  Herbicidal activity with respect to [%] SETVI: 100%

## Cc1ccc2c(c1)[C@H](Nc1nnc(C(=O)NC(C)C)c(N)n1)[C@@H](C)C2 [Example 1.39]
STEME: Stellaria media [1]
  Herbicidal activity with respect to [%] STEME: 80%
VERPE: Veronica persica [2]
  Herbicidal activity with respect to [%] VERPE: 100%
VIOTR: Viola tricolor
  Herbicidal activity with respect to [%] VIOTR: 90%
[5]
  Herbicidal activity with respect to [%] ALOMY: 80%
STEME: Stellaria media [6]
  Herbicidal activity with respect to [%] STEME: 100%
[7]
  Herbicidal activity with respect to [%] POLCO: 80%
[8]
  Herbicidal activity with respect to [%] MATIN: 100%
VERPE: Veronica persica [9]
  Herbicidal activity with respect to [%] VERPE: 100%
[10]
  Herbicidal activity with respect to [%] ECHCG: 90%
SETVI: Setaria viridis
  Herbicidal activity with respect to [%] SETVI: 100%

## Cc1ccc2c(c1)[C@H](Nc1nnc(C(=O)N(C)C)c(N)n1)[C@@H](C)C2 [Example 1.40]
VERPE: Veronica persica [2]
  Herbicidal activity with respect to [%] VERPE: 100%
VIOTR: Viola tricolor
  Herbicidal activity with respect to [%] VIOTR: 80%
[4]
  Herbicidal activity with respect to [%] LOLMU: 100%
[5]
  Herbicidal activity with respect to [%] ALOMY: 100%
[11]
  Herbicidal activity with respect to [%] ABUTH: 90%
STEME: Stellaria media [6]
  Herbicidal activity with respect to [%] STEME: 100%
[7]
  Herbicidal activity with respect to [%] POLCO: 100%
[8]
  Herbicidal activity with respect to [%] MATIN: 100%
VERPE: Veronica persica [9]
  Herbicidal activity with respect to [%] VERPE: 100%
[10]
  Herbicidal activity with respect to [%] ECHCG: 100%
SETVI: Setaria viridis
  Herbicidal activity with respect to [%] SETVI: 100%

## N#Cc1nnc(N[C@@H]2CCCc3ccccc32)nc1N [Example 1.37]
STEME: Stellaria media [1]
  Herbicidal activity with respect to [%] STEME: 100%
VERPE: Veronica persica [2]
  Herbicidal activity with respect to [%] VERPE: 100%
[4]
  Herbicidal activity with respect to [%] LOLMU: 100%
[5]
  Herbicidal activity with respect to [%] ALOMY: 100%
STEME: Stellaria media [6]
  Herbicidal activity with respect to [%] STEME: 100%
[7]
  Herbicidal activity with respect to [%] POLCO: 100%
[8]
  Herbicidal activity with respect to [%] MATIN: 100%
VERPE: Veronica persica [9]
  Herbicidal activity with respect to [%] VERPE: 100%
[10]
  Herbicidal activity with respect to [%] ECHCG: 100%
SETVI: Setaria viridis
  Herbicidal activity with respect to [%] SETVI: 100%
